Species: Rattus norvegicus
Test: DrugMatrix - Regimen: Daily Repeat
Type: toxicity, organism-based, Sprague-Dawley
Design: regimen Daily Repeat, gender Male, age 6-8 weeks
Details: in vivo, po, 0 mg/kg, route oral GAVAGE, dose level Control, vehicle 100 % WATER; for ABSOLUTE BASOPHIL / ABSOLUTE EOSINOPHIL / ABSOLUTE LYMPHOCYTE / ABSOLUTE MONOCYTE / ABSOLUTE SEGMENTED NEUTROPHIL / BASOPHIL / EOSINOPHIL / ERYTHROCYTE COUNT / HEMATOCRIT / HEMOGLOBIN / LEUKOCYTE COUNT / LYMPHOCYTE / MEAN CORPUSCULAR HEMOGLOBIN / MEAN CORPUSCULAR HEMOGLOBIN CONCENTRATION / MEAN CORPUSCULAR VOLUME / MONOCYTE / NEUTROPHIL / NUCLEATED RED BLOOD CELLS / PLATELET COUNT: tissue Blood; for ALANINE AMINOTRANSFERASE / ALBUMIN / ALKALINE PHOSPHATASE / ASPARTATE AMINOTRANSFERASE / BLOOD UREA NITROGEN / CARBON DIOXIDE / CHLORIDE / CHOLESTEROL / CREATINE PHOSPHOKINASE / CREATININE / GLUCOSE / LACTATE DEHYDROGENASE / LIPASE / PHOSPHORUS / POTASSIUM / SODIUM / TOTAL BILIRUBIN / TOTAL PROTEIN / URIC ACID: tissue Plasma

## CC(CCc1ccccc1)NCC(O)c1ccc(O)c(C(N)=O)c1 (stereo unspecified) [LABETALOL]
72 h, time 3 day
  ABSOLUTE BASOPHIL: 0 CELLS/uL
  ABSOLUTE EOSINOPHIL: 168.33 CELLS/uL
  ABSOLUTE LYMPHOCYTE: 13654.17 CELLS/uL
  ABSOLUTE MONOCYTE: 121 CELLS/uL
  ABSOLUTE SEGMENTED NEUTROPHIL: 1223.17 CELLS/uL
  BASOPHIL: 0%
  EOSINOPHIL: 1.17%
  ERYTHROCYTE COUNT: 5.7 x10E6/uL
  HEMATOCRIT: 35.33%
  HEMOGLOBIN: 13.97 G/DL
  LEUKOCYTE COUNT: 15.17 x10E3/uL
  LYMPHOCYTE: 89.83%
  MEAN CORPUSCULAR HEMOGLOBIN: 24.53 pg
  MEAN CORPUSCULAR HEMOGLOBIN CONCENTRATION: 39.53 G/DL
  MEAN CORPUSCULAR VOLUME: 62.05 fL
  MONOCYTE: 0.83%
  NEUTROPHIL: 8.17%
  NUCLEATED RED BLOOD CELLS: 0 /100WBC
  PLATELET COUNT: 1312.17 x10E3/uL
  ALANINE AMINOTRANSFERASE: 50.83 u/L
  ALBUMIN: 4.18 G/DL
  ALKALINE PHOSPHATASE: 334.17 u/L
  ASPARTATE AMINOTRANSFERASE: 82.17 u/L
  BLOOD UREA NITROGEN: 15.5 mg/dL
  CARBON DIOXIDE: 31.33 mmol/L
  CHLORIDE: 99.83 MEQ/L
  CHOLESTEROL: 76 mg/dL
  CREATINE PHOSPHOKINASE: 272.17 u/L
  CREATININE: 0.17 mg/dL
  GLUCOSE: 143 mg/dL
  LACTATE DEHYDROGENASE: 157.5 u/L
  LIPASE: 9.33 u/L
  PHOSPHORUS: 12.18 mg/dL
  POTASSIUM: 6.78 MEQ/L
  SODIUM: 143.9 MEQ/L
  TOTAL BILIRUBIN: 0.22 mg/dL
  TOTAL PROTEIN: 5.85 G/DL
  URIC ACID: 1.7 mg/dL
120 h, time 5 day
  ABSOLUTE BASOPHIL: 0 CELLS/uL
  ABSOLUTE EOSINOPHIL: 0 CELLS/uL
  ABSOLUTE LYMPHOCYTE: 13539.33 CELLS/uL
  ABSOLUTE MONOCYTE: 177.67 CELLS/uL
  ABSOLUTE SEGMENTED NEUTROPHIL: 2116.33 CELLS/uL
  BASOPHIL: 0%
  EOSINOPHIL: 0%
  ERYTHROCYTE COUNT: 5.78 x10E6/uL
  HEMATOCRIT: 36.13%
  HEMOGLOBIN: 14.1 G/DL
  LEUKOCYTE COUNT: 15.83 x10E3/uL
  LYMPHOCYTE: 85.83%
  MEAN CORPUSCULAR HEMOGLOBIN: 24.42 pg
  MEAN CORPUSCULAR HEMOGLOBIN CONCENTRATION: 39 G/DL
  MEAN CORPUSCULAR VOLUME: 62.55 fL
  MONOCYTE: 0.83%
  NEUTROPHIL: 13.33%
  NUCLEATED RED BLOOD CELLS: 0.17 /100WBC
  PLATELET COUNT: 1281.17 x10E3/uL
  ALANINE AMINOTRANSFERASE: 55.5 u/L
  ALBUMIN: 4.22 G/DL
  ALKALINE PHOSPHATASE: 345 u/L
  ASPARTATE AMINOTRANSFERASE: 92.5 u/L
  BLOOD UREA NITROGEN: 16.5 mg/dL
  CARBON DIOXIDE: 26.5 mmol/L
  CHLORIDE: 103.5 MEQ/L
  CHOLESTEROL: 78.5 mg/dL
  CREATINE PHOSPHOKINASE: 381.5 u/L
  CREATININE: 0.21 mg/dL
  GLUCOSE: 161.83 mg/dL
  LACTATE DEHYDROGENASE: 487.5 u/L
  LIPASE: 10.17 u/L
  PHOSPHORUS: 11.83 mg/dL
  POTASSIUM: 6.4 MEQ/L
  SODIUM: 146.95 MEQ/L
  TOTAL BILIRUBIN: 0.22 mg/dL
  TOTAL PROTEIN: 6.22 G/DL
  URIC ACID: 1.83 mg/dL
